The CATMoS acute toxicity set (Mansouri et al. 2021)
Several values for one entry are separate records, joined by “and”; a condition that tells them apart may be missing. Equal values may be shown once.

Test: rat acute oral toxicity
Details: in vivo
From the text: […]The data set underlying the modeling effort for this project was initially compiled by NICEATM and U.S. EPA’s CCTE. Briefly, LD50 data were collected from rat acute oral systemic toxicity tests, including limit tests, ranges/confidence intervals, and discrete LD50 values. The full data set included 21,200 LD50 entries for 15,688 substances. […] Data were reviewed to ensure that LD50 values with obvious errors in the extracted data such as unit conversion errors (e.g., comma and decimal separator misplacements) were either fixed or removed. After this review, 16,209 LD50 values remained. Many of the chemicals represented had multiple LD50 entries, requiring that a single representative value per Chemical Abstracts Service Registry Number (CASRN) identifier be defined to facilitate modeling efforts. Based on ATWG feedback and to define the representative LD50 as a protective value while accounting for the distribution across multiple LD50s, the median of the lowest quartile was computed using only discrete LD50 values (omitting limit test data and range and confidence interval data). A detailed summary of the data compilation is available online on the NICEATM webpage dedicated to the collaborative modeling project (NTP 2020).
[…][…] For categorical designations, limit test and range/confidence interval LD50 data were integrated wherever possible. As such, the number of chemicals with end point values/calls varies across the modeling end points (Table 3) based on whether chemicals had representative LD50 values and/or other data. If a chemical had both, the representative value was used to determine categorical calls rather than limit test data. Some data were useable only for certain end points and categories depending on the thresholds. For example, ranges that spanned multiple hazard categories were considered only for the binary (very toxic/nontoxic) end points and omitted from rendering a determination for hazard category assignment.
[…]The final data set comprising 11,992 chemicals was split into training and evaluation sets […], respectively. This process was performed semirandomly by ordering chemicals based on the five end points (categorical and continuous LD50 values) and partitioning every fourth record into the evaluation set accordingly. This approach was taken to ensure an equivalent distribution of the LD50 values and the different hazard categories between the training and the evaluation sets without supervised sampling of the chemicals based on structures (Figure 1A). The sources of the chemical structures were also kept equivalent between the two sets, with chemical structures obtained from DSSTox, being the highest quality, representing over 75% of each set (Figure 1B).

Row | Structure (SMILES) | LD50
1 | C/C(=N\C#N)N(C)Cc1ccc(Cl)nc1 | 146 mg/kg
2 | ClCCCBr | 930 mg/kg
3 | CCCCNCCCC | 189 mg/kg
4 | CCCN(CC1CC1)c1c([N+](=O)[O-])cc(C(F)(F)F)cc1[N+](=O)[O-] | 1810 mg/kg
5 | C=CC(=O)OCC | 800 mg/kg
6 | CN(C)CCCN1c2ccccc2Sc2ccc(Cl)cc21 | 142 mg/kg and 143 mg/kg
7 | Cc1cccc([N+](=O)[O-])c1C | 2110 mg/kg
8 | OCC(CO)(CBr)CBr | 1880 mg/kg
9 | C[N+](C)(C)CCO | 3400 mg/kg
10 | N#CCC(=O)O | 1010 mg/kg
11 | CC(=O)OC(C)(C)C | 4100 mg/kg
12 | ClCC(Cl)Cl | 836 mg/kg
13 | CCCCCCCC[Si](OCC)(OCC)OCC | 11500 mg/kg
14 | C[C@H]1OC(=O)[C@@H](C)OC1=O | 3540 mg/kg
15 | CCCCOCC1CO1 (stereo unspecified) | 1660 mg/kg
16 | CS | 116 mg/kg
17 | Oc1cc(Cl)ccc1Cl | 580 mg/kg
18 | COC(=O)N(C(=O)N1CO[C@@]2(C(=O)OC)Cc3cc(Cl)ccc3C2=N1)c1ccc(OC(F)(F)F)cc1 | 268 mg/kg
19 | CCC12COCN1COC2 | 3670 mg/kg
20 | CCON=C(CC)C1=C(O)CC(c2c(C)cc(C)cc2C)CC1=O (stereo unspecified) | 934 mg/kg
21 | N#CCC#N | 14 mg/kg
22 | COc1ccc(C(c2ccc(OC)cc2)C(Cl)(Cl)Cl)cc1 | 1860 mg/kg
23 | CC(C)=CC1C(C(=O)OCc2coc(Cc3ccccc3)c2)C1(C)C (stereo unspecified) | 1240 mg/kg
24 | CSc1ccc2c(c1)N(CCC1CCCCN1C)c1ccccc1S2 (stereo unspecified) | 995 mg/kg
25 | N#CC(Br)(Br)C(N)=O | 178 mg/kg
26 | NC(=O)c1cccnc1 | 3500 mg/kg

Row | Structure (SMILES) | LD50
27 | Cc1ccc2nc3sc(=O)sc3nc2c1 | 1100 mg/kg
28 | C1CCC2CCCCC2C1 (stereo unspecified) | 4170 mg/kg
29 | Cc1nnc(-c2ccccc2)c(=O)n1N | 1180 mg/kg
30 | CCN(CC)CCNC(=O)c1ccc(N)cc1 | 1510 mg/kg
31 | CC(C)C(Nc1ccc(C(F)(F)F)cc1Cl)C(=O)OC(C#N)c1cccc(Oc2ccccc2)c1 (stereo unspecified) | 261 mg/kg
32 | COc1ccc(Cc2nccc3cc(OC)c(OC)cc23)cc1OC | 325 mg/kg
33 | COP(=S)(OC)Oc1ccc(S(=O)(=O)N(C)C)cc1 | 28 mg/kg
34 | CN=C=O | 51.5 mg/kg
35 | CC(C)(C)C(O)C(Oc1ccc(Cl)cc1)n1cncn1 (stereo unspecified) | 689 mg/kg
36 | Clc1ccc(C2(Cn3cncn3)CC(Br)CO2)c(Cl)c1 (stereo unspecified) | 328 mg/kg
37 | CCOCCOCCO | 5570 mg/kg
38 | Clc1ccc(Cl)cc1 | 500 mg/kg
39 | CCOC(=O)C(SP(=S)(OC)OC)c1ccccc1 (stereo unspecified) | 71 mg/kg
40 | Clc1cccc(Cl)c1N=C1NCCN1 | 67.3 mg/kg
41 | CCCN(CCC)CCC | 72.5 mg/kg
42 | O=C(O)c1cc2ccccc2cc1O | 809 mg/kg
43 | N=C(N)N | 475 mg/kg and 730 mg/kg
44 | NC1CCCCC1N (stereo unspecified) | 1170 mg/kg
45 | Clc1ccc(-c2ccc(Cl)c(Cl)c2Cl)c(Cl)c1Cl | 1300 mg/kg
46 | NC(=O)NCc1ccccc1 | 2700 mg/kg
47 | CC(C)c1ccccc1 | 1400 mg/kg
48 | CCCCCCCCCCC(N)CO (stereo unspecified) | 300 mg/kg
49 | CCOP(=S)(OCC)SCSP(=S)(OCC)OCC | 13 mg/kg
50 | CCCN(CCC)C(=O)SCC | 916 mg/kg
51 | O=[N+]([O-])c1ccc(Cl)cc1O | 1000 mg/kg
52 | CC(O)CC(C)(C)O (stereo unspecified) | 3700 mg/kg

Row | Structure (SMILES) | LD50
53 | OCCCCO | 1350 mg/kg
54 | C=CCO | 64 mg/kg
55 | O=C(CS)OC(CO)CO | 172 mg/kg
56 | CCC(C)(C#N)/N=N/C(C)(C#N)CC (stereo unspecified) | 333 mg/kg
57 | CC(C#N)CCC#N (stereo unspecified) | 170 mg/kg
58 | COc1c(Cl)ccc(Cl)c1C(=O)O | 757 mg/kg
59 | CC(=O)Oc1ccc(C(c2ccc(OC(C)=O)cc2)c2ccccn2)cc1 | 4300 mg/kg
60 | CC1=C(C)S(=O)(=O)CCS1(=O)=O | 500 mg/kg
61 | C[N+](C)(C)CCCl | 600 mg/kg
62 | COc1ccc(OC)c([N+](=O)[O-])c1 | 2120 mg/kg
63 | CCCCC(CC)COC(=O)c1ccccc1 (stereo unspecified) | 2500 mg/kg
64 | N#CCO | 8 mg/kg
65 | COc1ccc2c3c1O[C@H]1[C@@H](O)C=C[C@H]4[C@@H](C2)N(C)CC[C@@]341 | 427 mg/kg
66 | Cc1cccc(C)c1N | 840 mg/kg
67 | Cc1ccc(NC(=O)N(C)C)cc1Cl | 5800 mg/kg
68 | CCOP(=O)(OCC)OC(=CCl)c1ccc(Cl)cc1Cl | 9.66 mg/kg
69 | N#CCNC(=O)c1cnccc1C(F)(F)F | 884 mg/kg
70 | CCOP(=S)(OCC)OC(Cl)C(Cl)(Cl)Cl (stereo unspecified) | 1.8 mg/kg
71 | CC(=O)Oc1ccccc1C(=O)O | 1280 mg/kg
72 | CC(O)COc1ccccc1 (stereo unspecified) | 2830 mg/kg
73 | O=C(Cl)CCCCl | 1350 mg/kg
74 | CCO[Si](CCC#N)(OCC)OCC | 5600 mg/kg
75 | Cc1ccc(C)cc1 | 3520 mg/kg
76 | N#Cc1c(Cl)c(Cl)c(Cl)c(C#N)c1Cl | 242 mg/kg
